From patent US11278514B2, “Composition compromising dunnione as effective ingredient for prevention or alleviation of hair loss” (NADIANBIO LTD., priority 2018, dated 2022)
Entries after “also recorded” stand apart in the source; their conditions may differ.

How the values were obtained:
NQO1 knockout mice = experiment: Histological changes in skin (H&E) in NQO1 knockout mice treated with 6×TAC; format: in vivo; settings: day 18
Description: The day, on which the NQO1 knockout mice were hair-removed according to Example 1, was set as day 0, and the mice in each of the experimental groups described in Example 5 were sacrificed on day 18. Subsequently, the mouse dorsal skin was dissected parallel or perpendicular to the vertebral line, and removed. The removed skin was fixed with a Bouin's solution for 12 hours, subjected to dehydration, and embedded in paraffin. Then, the resulting product was prepared into 5-μm sections. The prepared sections were subjected to hematoxylin and eosin (H&E) staining, and histological changes in the skin in each experimental group were observed.

NAD^+ = experiment: NAD+ and NADH concentrations and NAD+/NADH ratio in skin tissue, cyclophosphamide alopecia model; format: in vivo, mice; settings: cyclophosphamide plus dunnione vs cyclophosphamide
Description: Specifically, in order to quantify the NAD^+ and NADH concentrations in the skin tissue obtained from the animal model prepared by the method in Example 2, the skin tissue was tested with the analysis kit (E2ND-100) of BioAssay Systems according to the instruction manual, and then the NAD^+/NADH ratio was analyzed. First, 10 mg of skin tissue was collected from the animal model. Then, 100 μl of extraction solution for NAD^+ or NADH was added to the skin tissue and homogenized. Then, the homogenized skin tissue was subjected to heat treatment at 60° C. for 5 minutes. Neutralization was performed by addition of the same volume of the extraction solution, and then centrifugation was performed at 14,000 rpm for 5 minutes to obtain the supernatant. Then, a developing reagent was added to the supernatant. The NAD^+ and NADH concentrations were determined from the absorbance measured at a wavelength of 565 nm, and the NAD^+/NADH ratio was analyzed.

[1] = tested on: C57BL/6 mice having alopecia caused by docetaxel, adriamycin, and cyclophosphamide; experiment: Visual observation of skin in animal model having alopecia caused by 6×TAC; format: in vivo
From the text: In 9-week-old C57BL/6 mice, the hair on the dorsal skin area was first removed with an animal hair clipper, and then a depilatory (Niclean cream, manufactured by Ildong Pharmaceutical Co., Ltd.) was applied to the dorsal skin to completely remove the hair.
Docetaxel (DTX), adriamycin (ADR), and cyclophosphamide (CYP) were used as anticancer drugs, and combined administration of the three anticancer drugs was designated as TAC. In addition, information was obtained from the National Comprehensive Cancer Network (NCCN) for the single concentration (designated as 1× concentration) of each anticancer drug which is actually clinically applied to cancer patients. As described below, for the experimental group to be treated with anti-cancer drugs, the mice were treated with docetaxel, adriamycin, and cyclophosphamide at 6× concentration (11.58 mg/kg, 9.24 mg/kg, and 76.8 mg/kg, respectively). When treatment with the anticancer drugs is performed, the anticancer drugs were injected intraperitoneally at time intervals of 1 hour so that each of the anticancer drugs can be sufficiently absorbed.

CC1OC2=C(C(=O)C(=O)c3ccccc32)C1(C)C (centres unmarked) [dunnione, 2,3-dihydro-2,3,3-trimethyl-naphtho[1,2-b]furan-4,5-dione]
development of hair follicles and inner root sheaths (histology) (NQO1 knockout mice; 6×TAC+Dunnione combination-treated group): the hair follicles have poorly developed or the inner root sheaths have insufficiently developed; also recorded: falling-off of hair follicles and inner root sheaths in the skin tissue progresses
development of hair follicles and inner root sheaths (histology) (NQO1 knockout mice; dunnione alone): the hair follicles and inner root sheaths have well developed overall
NAD^+/NADH ratio in skin tissue (NAD^+; day 18): increases
NAD^+ concentration in skin tissue (NAD^+; day 18 after hair removal): increases
hair growth, visual observation of skin ([1]; 6×TAC+Dunnione combination-treated group, day 18): hair grew overall so that the skin is full of hair and looks black
hair growth, visual observation of skin ([1]; 6×TAC+Dunnione: 6×TAC i.p. day 9, dunnione oral daily from 3 days prior, day 14): began to grow more hair than the 6×TAC alone-treated group
hair loss ([1]; TAC plus dunnione combination-treated group compared with TAC alone-treated group): inhibited hair loss
hair growth, visual observation of skin ([1]; dunnione alone, day 18): hair grew overall so that the skin is full of hair and looks black
